Data on 18 compounds can be found in patent US20150141411A1, “SUBSTITUTED 3,4-DIHYDRO-2H-PYRIDO[1,2-A]PYRAZINE-1,6-DIONE DERIVATIVES USEFUL FOR THE TREATMENT OF (INTER ALIA) ALZHEIMER'S DISEASE” (Janssen Pharmaceuticals, Inc., priority 2012, published 2015).

Structures are written as SMILES.

The test relates to Aβ38. The test is described as follows: In vivo efficacy: brain soluble Aβ38 in non-transgenic rodents (ELISA). The conditions noted are these: Mus musculus, dose 30 mg/kg oral dosing, brain soluble fraction, animals sacrificed after 4 h, untreated animals (Ctrl) set at 100, read-out: Aβ38 (% vs Ctrl)_Mean. An excerpt:
To determine whether acute administration of an Aβ38 increasing agents would increase Aβ38 levels in vivo, non-transgenic rodents, e.g. mice or rats were used. Animals treated with the Aβ38 increasing agents were examined and compared to those untreated or treated with vehicle and brain levels of soluble Aβ38 and total Aβ were quantitated by standard techniques, for example, using ELISA. Treatment periods varied from hours (h) to days and were adjusted based on the results of the Aβ38 increase once a time course of onset of effect could be established.
A typical protocol for measuring Aβ38 increase in vivo is shown but it is only one of many variations that could be used to optimize the levels of detectable Aβ. For example, Aβ38 increasing agents were formulated in 20% of Captisol® (a sulfobutyl ether of β-cyclodextrin) in water or 20% hydroxypropyl βcyclodextrin. The Aβ38 increasing agents were administered as a single oral dose or by any acceptable route of administration to overnight fasted animals. After 4 h, the animals were sacrificed and Aβ38 levels were analysed.
Blood was collected by decapitation and exsanguinations in EDTA-treated collection tubes. Blood was centrifuged at 1900 g for 10 minutes (min) at 4° C. and the plasma recovered and flash frozen for later analysis. The brain was removed from the cranium and hindbrain. The cerebellum was removed and the left and right hemisphere were separated. The left hemisphere was stored at −18° C. for quantitative analysis of test compound levels. The right hemisphere was rinsed with phosphate-buffered saline (PBS) buffer and immediately frozen on dry ice and stored at −80° C. until homogenization for biochemical assays.
Mouse brains from non-transgenic animals were resuspended in 8 volumes of 0.4% DEA (diethylamine)/50 mM NaCl containing protease inhibitors (Roche-11873580001 or 04693159001) per gram of tissue, e.g. for 0.158 g brain, add 1.264 ml of 0.4% DEA. All samples were homogenized in the FastPrep-24 system (MP Biomedicals) using lysing matrix D (MPBio #6913-100) at 6 m/s for 20 seconds. Homogenates were centrifuged at 221.300×g for 50 min. The resulting high speed supernatants were then transferred to fresh eppendorf tubes. Nine parts of supernatant were neutralized with 1 part 0.5 M Tris-HCl pH 6.8 and used to quantify Aβ total and Aβ38.
To quantify the amount of Aβtotal and Aβ38 in the soluble fraction of the brain homogenates, Enzyme-Linked-Immunosorbent-Assays were used. Briefly, the standards (a dilution of synthetic Aβ1-40 and Aβ1-38, ANASPEC) were prepared in 1.5 ml Eppendorf tube in Ultraculture, with final concentrations ranging from 10000 to 0.3 pg/ml. The samples and standards were co-incubated with HRPO-labelled N-terminal antibody for Aβ38 detection and with the biotinylated mid-domain antibody 4G8 for Aβtotal detection. 50 μl of conjugate/sample or conjugate/standards mixtures were then added to the antibody-coated plate (the capture antibodies selectively recognize the C-terminal end of Aβ38, antibody J&JPRD/Aβ38/5, for Aβ38 detection and the N-terminus of Aβ, antibody JRF/rAβ/2, for Aβtotal detection). The plate was allowed to incubate overnight at 4° C. in order to allow formation of the antibody-amyloid complex. Following this incubation and subsequent wash steps the ELISA for Aβ38 quantification was finished by addition of Quanta Blu fluorogenic peroxidase substrate according to the manufacturer's instructions (Pierce Corp., Rockford, Ill.). A reading was performed after 10 to 15 min (excitation 320 nm/emission 420 nm).
In this model a Aβ38 increase compared to untreated animals would be advantageous, in particular a Aβ38 increase with at least 10%, more in particular a Aβ38 increase with at least 20%.
The results are shown in Table 4 (dose 30 mg/kg oral dosing) (value for untreated animals as control (Ctrl) was set at 100): […]
A general note: An ELISA detects its analyte on a solid surface through an enzyme-linked reagent.

On to `Cc1cn(-c2ccc3n(c2=O)C[C@@H](C)N(Cc2ccc(Cl)c(C(F)(F)F)c2)C3=O)cn1` [compound 62], for which the response vs control in vivo at 30 mg/kg was 160%.

As to `Cc1cn(-c2ccc3n(c2=O)C[C@@H](C)N(CCc2cc(C(F)(F)F)cc(C(F)(F)F)c2)C3=O)cn1` [compound 50], the response vs control in vivo at 30 mg/kg turned out to be 110%.

Take `Cc1cn(-c2ccc3n(c2=O)CCN(C(C)c2cccc(Cl)c2Cl)C3=O)cn1` (single isomer, unassigned) [10a]: the response vs control in vivo at 30 mg/kg turned out to be 85%.

With `Cc1cn(-c2ccc3n(c2=O)CCN(Cc2ccc(Cl)c(C(F)(F)F)c2)C3=O)cn1` [compound 65], the response vs control in vivo at 30 mg/kg was 132%.

For the compound `Cc1cn(-c2ccc3n(c2=O)C[C@@H](C)N(Cc2ccc(Cl)c(Cl)c2)C3=O)cn1` [compound 2], the response vs control in vivo at 30 mg/kg was 129%.

`Cc1cn(-c2ccc3n(c2=O)CCN(Cc2ccccc2C)C3=O)cn1` [compound 22]: the response vs control in vivo at 30 mg/kg was 105%.

Turning to `Cc1cc(CN2C(=O)c3ccc(-n4cnc(C)c4)c(=O)n3C[C@H]2C)cc(C(F)(F)F)c1` [compound 59], the response vs control in vivo at 30 mg/kg was 126%.

Regarding `Cc1cn(-c2ccc3n(c2=O)CCN(Cc2cccc(-c4ccccc4)c2)C3=O)cn1` [compound 5], the response vs control in vivo at 30 mg/kg came to 110%.

With `Cc1cn(-c2ccc3n(c2=O)CC(C)N(Cc2cc(C(F)(F)F)cc(C(F)(F)F)c2)C3=O)cn1` (stereo not drawn) [compound 3], the response vs control in vivo at 30 mg/kg worked out at 137%.

For `Cc1cn(-c2ccc3n(c2=O)C[C@@H](C)N(Cc2ccc(C(F)(F)F)c(C(F)(F)F)c2)C3=O)cn1` [compound 46], the response vs control in vivo at 30 mg/kg came out at 62%.

Consider `CCc1cn(-c2ccc3n(c2=O)CC(C)N(Cc2cc(C(F)(F)F)cc(C(F)(F)F)c2)C3=O)cn1.Cl` (stereo not drawn) [compound 7], for which the response vs control in vivo at 30 mg/kg turned out to be 80%.

For the compound `Cc1cn(-c2ccc3n(c2=O)CC(C)N(Cc2cc(OCC4CC4)cc(C(F)(F)F)c2)C3=O)cn1.Cl` (stereo not drawn) [compound 6], the response vs control in vivo at 30 mg/kg was 129%.

Regarding `Cc1cn(-c2ccc3n(c2=O)C[C@@H](C)N(Cc2cc(Cl)cc(C(F)(F)F)c2)C3=O)cn1` [compound 63], the response vs control in vivo at 30 mg/kg was 133%.

Regarding `Cc1cn(-c2ccc3n(c2=O)C[C@@H](C)N(Cc2cc(N4CCCC4)ccc2Cl)C3=O)cn1` [compound 82], the response vs control in vivo at 30 mg/kg was 120%.

Turning to `CCC1Cn2c(ccc(-n3cnc(C)c3)c2=O)C(=O)N1Cc1cc(C(F)(F)F)cc(C(F)(F)F)c1.Cl` (stereo not drawn) [compound 1], the response vs control in vivo at 30 mg/kg was 103%.

Consider `Cc1cn(-c2ccc3n(c2=O)C[C@@H](C)N(Cc2cc(N4CCC(C)CC4)ccc2Cl)C3=O)cn1` [compound 80], for which the response vs control in vivo at 30 mg/kg was 118%.

Take `Cc1cn(-c2ccc3n(c2=O)C[C@@H](C)N(Cc2cccc(C(C)(C)C)c2)C3=O)cn1` [compound 23]: the response vs control in vivo at 30 mg/kg was 132%.

In the case of `Cc1cn(-c2ccc3n(c2=O)CCN(Cc2ccc(C)c(N4CCCCC4)c2)C3=O)cn1` [compound 99], the response vs control in vivo at 30 mg/kg stood at 92%.
